From ChEMBL document CHEMBL1201862, “PubChem BioAssay data set” (2004)
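Cells were grown in 96-well plates and exposed to each compound for 48 hours at five concentrations; endpoints were interpolated linearly between bracketing concentrations, or set to the highest concentration if not reached. GI50 is the concentration that inhibits growth by half.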 Calls of active or inactive are those of the source. No stated cut-off is given here; in the data, active = GI50 up to about 1.1 µM and inactive = higher. Square brackets hold non-standard residues; d marks the D form. Peptide text beside a SMILES is read from it. * marks the point of attachment. ξ: configuration not given here. ξW = NC(Cc1c[nH]c2ccccc12)C(=O)O; X29 = O=C(O)[C@H]1CCC[C@H]1N*; ξF = NC(Cc1ccccc1)C(=O)O; Boc = CC(C)(C)OC(=O)*; ξK = NCCCCC(N)C(=O)O; ξT = CC(O)C(N)C(=O)O; tBu = CC(C)(C)*

Key:
Experiment in all cases: NCI-60 cell line screen, 48 h
[1] = tested on: SR
[2] = tested on: SW-620
[3] = tested on: LOX IMVI
[4] = tested on: SF-295
[5] = tested on: DU-145
[6] = tested on: NCI-H460
[7] = tested on: MDA-N
[8] = tested on: K562
[9] = tested on: SF-539
[10] = tested on: U-251
[11] = tested on: MOLT-4
[12] = tested on: HOP-92
[13] = tested on: NCI-H522
[14] = tested on: COLO 205
[15] = tested on: UACC-62
[16] = tested on: TK-10
[17] = tested on: CAKI-1
[18] = tested on: SK-MEL-2
[19] = tested on: Hs-578T
[20] = tested on: RPMI-8226

Row | SMILES | GI50 [1] | GI50 [2] | GI50 [3] | GI50 [4] | GI50 [5] | GI50 [6] | GI50 [7] | GI50 [8] | GI50 [9] | GI50 [10] | GI50 [11] | GI50 [12] | GI50 [13] | GI50 [14] | GI50 [15] | GI50 [16] | GI50 [17] | GI50 [18] | GI50 [19] | GI50 [20]
1 | CN(CCCNC(=O)c1cn(C)c2c1ccc1cc(Cl)ccc12)CCCNC(=O)c1cn(C)c2c1ccc1cc(Cl)ccc12 | 2.54 µM (inactive) | 1.62 µM (inactive) | 1.64 µM (inactive) | 2 µM (inactive) | 1.89 µM (inactive) | 1.56 µM (inactive) | 2.23 µM (inactive) | 1.97 µM (inactive) | 1.99 µM (inactive) | 1.71 µM (inactive) | 1.73 µM (inactive) | 3.6 µM (inactive) | 1.75 µM (inactive) | 1.47 µM (inactive) | 1.84 µM (inactive) | 2.47 µM (inactive) | 2.3 µM (inactive) | 1.69 µM (inactive) | 1.83 µM (inactive) | 
2 | CN1CCN(C(=S)N(C(=O)c2ccco2)c2ccccc2)CC1 | > 100 µM (inactive) | > 100 µM (inactive) | > 100 µM (inactive) | > 100 µM (inactive) | > 100 µM (inactive) | > 100 µM (inactive) | > 100 µM (inactive) | > 100 µM (inactive) |  | > 100 µM (inactive) | > 100 µM (inactive) | > 100 µM (inactive) | > 100 µM (inactive) | > 100 µM (inactive) | > 100 µM (inactive) | > 100 µM (inactive) |  | > 100 µM (inactive) | > 100 µM (inactive) | > 100 µM (inactive)
3 | C=C1CC[C@H](O)C(C)(C)[C@@H]1CC/C(C)=C/CC/C=C(\C)CC/C=C(\C)CCC=C(C)C | 59.6 µM (inactive) | > 100 µM (inactive) | > 100 µM (inactive) | > 100 µM (inactive) | > 100 µM (inactive) | > 100 µM (inactive) | > 100 µM (inactive) | > 100 µM (inactive) | > 100 µM (inactive) | > 100 µM (inactive) | > 100 µM (inactive) | > 100 µM (inactive) | 29 µM (inactive) | > 100 µM (inactive) | > 100 µM (inactive) | > 100 µM (inactive) | > 100 µM (inactive) | 46.7 µM (inactive) | > 100 µM (inactive) | 
4 | CC(OC(C)(C)C)C(NC(=O)C(CCCCNC(=O)OC(C)(C)C)NC(=O)C(Cc1c[nH]c2ccccc12)NC(=O)C(N)Cc1ccccc1)C(=O)NC(Cc1ccccc1)C(=O)N[C@@H]1CCC[C@@H]1C(=O)O (some centres undefined) (H-[ξF][ξW][ξK](Boc)[ξT](tBu)[ξF]-X29) | 35.5 µM (inactive) | 47.1 µM (inactive) | 20.8 µM (inactive) | > 100 µM (inactive) | 46.2 µM (inactive) | > 100 µM (inactive) | 52.1 µM (inactive) | 51.6 µM (inactive) | 19.4 µM (inactive) | 24.3 µM (inactive) | 41.6 µM (inactive) | 30.3 µM (inactive) | 20.7 µM (inactive) | 27.4 µM (inactive) | 33.4 µM (inactive) |  | > 100 µM (inactive) | 16.7 µM (inactive) | 19.9 µM (inactive) | 35.2 µM (inactive)
5 | O=c1oc2cccnc2n1CCCCN1CCN(c2ccccc2)CC1 | > 100 µM (inactive) | > 100 µM (inactive) | > 100 µM (inactive) | > 100 µM (inactive) | > 100 µM (inactive) | > 100 µM (inactive) | > 100 µM (inactive) | > 100 µM (inactive) | > 100 µM (inactive) | > 100 µM (inactive) | > 100 µM (inactive) | > 100 µM (inactive) | > 100 µM (inactive) |  |  | > 100 µM (inactive) | > 100 µM (inactive) | > 100 µM (inactive) | > 100 µM (inactive) | > 100 µM (inactive)
6 | C=[N+](CNC(=O)CNC(=O)C(Cc1ccc([N+](=O)[O-])cc1)NC(=O)OC(C)(C)C)C(=O)CNC(=O)C(Cc1ccc([N+](=O)[O-])cc1)NC(=O)OC(C)(C)C (centres undefined) | 24 µM (inactive) | 41.6 µM (inactive) | 15.7 µM (inactive) | 46.6 µM (inactive) | > 100 µM (inactive) | > 100 µM (inactive) | > 10 µM (inactive) | 19 µM (inactive) | 25.1 µM (inactive) | 39.4 µM (inactive) | 17 µM (inactive) | 38.1 µM (inactive) | 24.3 µM (inactive) | 58.2 µM (inactive) | 21.6 µM (inactive) | > 100 µM (inactive) | > 100 µM (inactive) |  | 26.1 µM (inactive) | 16.9 µM (inactive)
7 | O=c1[nH]c(Nc2nc3ccccc3[nH]2)nc(O)c1-c1ccccc1 | > 100 µM (inactive) | > 100 µM (inactive) | > 100 µM (inactive) | > 100 µM (inactive) | > 100 µM (inactive) | > 100 µM (inactive) | > 100 µM (inactive) | > 100 µM (inactive) | > 100 µM (inactive) | 82.2 µM (inactive) |  | > 100 µM (inactive) | > 100 µM (inactive) | > 100 µM (inactive) | > 100 µM (inactive) | > 100 µM (inactive) | > 100 µM (inactive) | > 100 µM (inactive) | 72.3 µM (inactive) | 
8 | C/C(=N\NC(N)=S)c1sc(-n2nc(-c3ccccc3)cc2-c2ccccc2)nc1C | 67.3 µM (inactive) | > 100 µM (inactive) | 71.9 µM (inactive) | > 100 µM (inactive) | > 100 µM (inactive) | > 100 µM (inactive) | > 100 µM (inactive) |  | > 100 µM (inactive) | > 100 µM (inactive) | 27.9 µM (inactive) | > 100 µM (inactive) | 79.4 µM (inactive) | > 100 µM (inactive) | > 100 µM (inactive) | > 100 µM (inactive) | > 100 µM (inactive) | > 100 µM (inactive) | > 100 µM (inactive) | 16.9 µM (inactive)
9 | CC(C)=CCC/C(C)=C/CC/C(C)=C/CC/C(C)=C/CC/C(C)=C\CC/C(C)=C/CC/C(C)=C/CC/C(C)=C/Cc1cc(O)ccc1O | 0.43 µM (active) | 2.28 µM (inactive) | 0.966 µM (active) | 1.45 µM (inactive) | 19.4 µM (inactive) | 2.57 µM (inactive) | 0.236 µM (active) | 3.18 µM (inactive) | 1.33 µM (inactive) | 1.85 µM (inactive) | 1.93 µM (inactive) | 8.49 µM (inactive) | 0.505 µM (active) | 0.387 µM (active) | 0.157 µM (active) | 1.41 µM (inactive) | 0.239 µM (active) | 0.682 µM (active) | 3.33 µM (inactive) | 
10 | O=C(NCCCN(CCCCN(CCCNC(=O)c1cc(S(=O)(=O)O)cc(O)c1O)C(=O)c1cc(S(=O)(=O)O)cc(O)c1O)C(=O)c1cc(S(=O)(=O)O)cc(O)c1O)c1cc(S(=O)(=O)O)cc(O)c1O | 60.4 µM (inactive) | > 100 µM (inactive) | 98.4 µM (inactive) |  | > 100 µM (inactive) | > 100 µM (inactive) | > 100 µM (inactive) | > 100 µM (inactive) |  | > 100 µM (inactive) |  | > 100 µM (inactive) | > 100 µM (inactive) | > 100 µM (inactive) | > 100 µM (inactive) | > 100 µM (inactive) | > 100 µM (inactive) | > 100 µM (inactive) | > 100 µM (inactive) | 
